In ChEMBL document CHEMBL4840335, “Rational Design and Development of Novel CDK9 Inhibitors for the Treatment of Acute Myeloid Leukemia” (J Med Chem, 2021):
The source made the active and inactive calls. The calls are words filed in the database; no cut-off is given here.

Key:
[1] = AUClast in ICR mouse at 2 mg/kg, iv measured up to 24 hrs; assay type: ADME, organism-based; parameters: route intravenous, dose 2 mg/kg, time <=24; conditions: in vivo
MV4-11 [2] = experiment: Antitumor activity against human MV4-11 cells xenografted in Nu/Nu mouse assessed as relative tumor volume at 7.5 mg/kg, po administered for 21 consecutive days by digital caliper method; assay type: functional; conditions: time 22 day
MV4-11 [3] = experiment: Induction of apoptosis in human MV4-11 cells assessed as early apoptotic cells at 10 nM measured after 24 hrs by annexinV-FITC/propidium iodide staining based flow cytometry (reference value: 0.79 %); assay type: functional
MV4-11 [4] = experiment: Antitumor activity against human MV4-11 cells xenografted in Nu/Nu mouse assessed as tumor growth suppression by measuring T/C ratio at 7.5 mg/kg, po administered for 21 consecutive days by digital caliper method relative to control; assay type: functional; conditions: time 21 day
[5] = biological target: Receptor tyrosine-protein kinase erbB-2 (Homo sapiens, UniProt P04626); experiment: Inhibition of ErbB2 (unknown origin)
[6] = biological target: Cyclin-dependent kinase 2 (Homo sapiens, UniProt P24941); experiment: Inhibition of CDK2 (unknown origin)
[7] = Observed AUC infinity in ICR mouse at 2 mg/kg, iv measured up to 24 hrs; assay type: ADME, organism-based; parameters: route intravenous, dose 2 mg/kg, time <=24; conditions: in vivo
Z-138 = experiment: Antiproliferative activity against human Z138 cells assessed as reduction in cell proliferation measured after 3 to 7 days by MTS assay; assay type: functional, cell-based
[8] = Observed AUC infinity in ICR mouse at 20 mg/kg, po measured up to 24 hrs; assay type: ADME, organism-based; parameters: route oral, dose 20 mg/kg, time <=24; conditions: in vivo
[9] = biological target: Platelet-derived growth factor receptor alpha (Homo sapiens, UniProt P16234); experiment: Inhibition of PDGFRA (unknown origin)
[10] = MRT in ICR mouse at 2 mg/kg, iv measured up to 24 hrs; assay type: ADME, organism-based; conditions: in vivo
[11] = Observed clearance in ICR mouse at 2 mg/kg, iv measured up to 24 hrs; assay type: ADME, organism-based; conditions: in vivo
[12] = biological target: Discoidin domain-containing receptor 2 (Homo sapiens, UniProt Q16832); experiment: Inhibition of DDR2 (unknown origin)
[13] = biological target: Proto-oncogene tyrosine-protein kinase Src (Homo sapiens, UniProt P12931); experiment: Inhibition of SRC (unknown origin)
[14] = Half life in ICR mouse at 2 mg/kg, iv measured up to 24 hrs; assay type: ADME, organism-based; conditions: in vivo
OCI-Ly10 = experiment: Antiproliferative activity against human OCILY10 cells assessed as reduction in cell proliferation measured after 3 to 7 days by MTS assay; assay type: functional, cell-based
[15] = Toxicity in Nu/Nu mouse xenografted with human MV4-11 cells assessed as body weight loss at 7.5 mg/kg, po administered for 21 consecutive days relative to control; assay type: organism-based; conditions: in vivo, 504 h, time 21 day
[16] = biological target: Cyclin-dependent kinase 9 (Homo sapiens) (UniProt P50750); experiment: Inhibition of CDK9 in human MV4-11 cells assessed as reduction in RNAP2 phosphorylation at ser2 residues at 1 to 10 uM after 12 hrs by Western blot analysis; assay type: cell-based; conditions: dose 1-10 µM
MV4-11 [17] = experiment: Induction of apoptosis in human MV4-11 cells assessed as necrotic cells at 10 nM measured after 24 hrs by annexinV-FITC/propidium iodide staining based flow cytometry (reference value: 1.03 %); assay type: functional
TMD8 = experiment: Antiproliferative activity against human TMD8 cells assessed as reduction in cell proliferation measured after 3 to 7 days by MTS assay; assay type: functional, cell-based
[18] = Oral bioavailability in ICR mouse at 20 mg/kg measured up to 24 hrs; assay type: ADME, organism-based; conditions: in vivo
Insulin receptor = Insulin receptor (Homo sapiens, UniProt P06213); experiment: Inhibition of IR (unknown origin)
MV4-11 [19] = experiment: Induction of apoptosis in human MV4-11 cells assessed as necrotic cells at 50 nM measured after 24 hrs by annexinV-FITC/propidium iodide staining based flow cytometry (reference value: 1.03 %); assay type: functional
JeKo-1 = experiment: Antiproliferative activity against human JeKo-1 cells assessed as reduction in cell proliferation measured after 3 to 7 days by MTS assay; assay type: functional, cell-based
[20] = biological target: Tyrosine-protein kinase receptor UFO (Homo sapiens, UniProt P30530); experiment: Inhibition of AXL (unknown origin)
[21] = Tmax in ICR mouse at 20 mg/kg, po measured up to 24 hrs; assay type: ADME, organism-based; conditions: in vivo
[22] = biological target: Cyclin-dependent kinase 9 (Homo sapiens) (UniProt P50750); experiment: Inhibition of CDK9 in human MV4-11 cells assessed as reduction in RNAP2 phosphorylation at ser5 residues at 1 to 10 uM after 12 hrs by Western blot analysis; assay type: cell-based; conditions: dose 1-10 µM
[23] = biological target: Epidermal growth factor receptor (Homo sapiens, UniProt P00533); experiment: Inhibition of EGFR (unknown origin)
Raji = experiment: Antiproliferative activity against human Raji cells assessed as reduction in cell proliferation measured after 3 to 7 days by MTS assay; assay type: functional, cell-based
[24] = biological target: ALK tyrosine kinase receptor (Homo sapiens, UniProt Q9UM73); experiment: Inhibition of ALK (unknown origin)
[25] = biological target: Receptor tyrosine-protein kinase erbB-4 (Homo sapiens, UniProt Q15303); experiment: Inhibition of ErbB4 (unknown origin)
[26] = biological target: Fibroblast growth factor receptor 1 (Homo sapiens, UniProt P11362); experiment: Inhibition of FGFR1 (unknown origin)
[27] = biological target: Vascular endothelial growth factor receptor 1 (Homo sapiens, UniProt P17948); experiment: Inhibition of VEGFR1 (unknown origin)
[28] = Half life in ICR mouse at 20 mg/kg, po measured up to 24 hrs; assay type: ADME, organism-based; conditions: in vivo
[29] = biological target: Tyrosine-protein kinase receptor TYRO3 (Homo sapiens, UniProt Q06418); experiment: Inhibition of TYRO3 (unknown origin)
MV4-11 [30] = experiment: Induction of apoptosis in human MV4-11 cells assessed as late apoptotic cells at 50 nM measured after 24 hrs by annexinV-FITC/propidium iodide staining based flow cytometry (reference value: 3.04 %); assay type: functional
CDK9/cyclin T1 = CDK9/cyclin T1 (Homo sapiens, UniProt P50750); experiment: Inhibition of CDK9/cyclin T1 (unknown origin) incubated for 2 hrs in presence of ATP by FRET based LANCE assay; assay type: protein-complex assay
MV4-11 [31] = experiment: Induction of apoptosis in human MV4-11 cells assessed as live cells at 50 nM measured after 24 hrs by annexinV-FITC/propidium iodide staining based flow cytometry (reference value: 95.14 %); assay type: functional
[32] = biological target: Cyclin-dependent kinase 7 (Homo sapiens, UniProt P50613); experiment: Inhibition of CDK7 (unknown origin)
MV4-11 [33] = experiment: Induction of apoptosis in human MV4-11 cells assessed as live cells at 10 nM measured after 24 hrs by annexinV-FITC/propidium iodide staining based flow cytometry (reference value: 95.14 %); assay type: functional
[34] = Antiproliferative activity against human MINO cells assessed as reduction in cell proliferation measured after 3 to 7 days by MTS assay; assay type: functional, cell-based
[35] = biological target: Hepatocyte growth factor receptor (Homo sapiens, UniProt P08581); experiment: Inhibition of Met (unknown origin)
MV4-11 [36] = experiment: Antitumor activity against human MV4-11 cells xenografted in Nu/Nu mouse assessed as change in tumor volume at 7.5 mg/kg, po administered for 21 consecutive days by digital caliper method and measured on day 22 (reference value: 127 +/- 16 mm3); assay type: functional; conditions: time 22 day

Chain of Cyclin-dependent kinase 9 (Homo sapiens) (P50750 whole entry): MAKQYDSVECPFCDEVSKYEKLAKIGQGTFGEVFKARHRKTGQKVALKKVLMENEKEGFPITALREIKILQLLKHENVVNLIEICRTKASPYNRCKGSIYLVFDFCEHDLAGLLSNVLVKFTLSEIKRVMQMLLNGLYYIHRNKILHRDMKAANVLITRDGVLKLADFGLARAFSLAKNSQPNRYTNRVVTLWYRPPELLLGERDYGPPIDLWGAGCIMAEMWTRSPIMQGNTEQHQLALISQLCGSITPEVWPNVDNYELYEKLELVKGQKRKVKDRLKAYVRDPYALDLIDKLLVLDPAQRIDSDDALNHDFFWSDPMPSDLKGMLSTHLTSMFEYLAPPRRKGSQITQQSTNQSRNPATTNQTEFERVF
Chain of Platelet-derived growth factor receptor alpha (P16234 whole entry): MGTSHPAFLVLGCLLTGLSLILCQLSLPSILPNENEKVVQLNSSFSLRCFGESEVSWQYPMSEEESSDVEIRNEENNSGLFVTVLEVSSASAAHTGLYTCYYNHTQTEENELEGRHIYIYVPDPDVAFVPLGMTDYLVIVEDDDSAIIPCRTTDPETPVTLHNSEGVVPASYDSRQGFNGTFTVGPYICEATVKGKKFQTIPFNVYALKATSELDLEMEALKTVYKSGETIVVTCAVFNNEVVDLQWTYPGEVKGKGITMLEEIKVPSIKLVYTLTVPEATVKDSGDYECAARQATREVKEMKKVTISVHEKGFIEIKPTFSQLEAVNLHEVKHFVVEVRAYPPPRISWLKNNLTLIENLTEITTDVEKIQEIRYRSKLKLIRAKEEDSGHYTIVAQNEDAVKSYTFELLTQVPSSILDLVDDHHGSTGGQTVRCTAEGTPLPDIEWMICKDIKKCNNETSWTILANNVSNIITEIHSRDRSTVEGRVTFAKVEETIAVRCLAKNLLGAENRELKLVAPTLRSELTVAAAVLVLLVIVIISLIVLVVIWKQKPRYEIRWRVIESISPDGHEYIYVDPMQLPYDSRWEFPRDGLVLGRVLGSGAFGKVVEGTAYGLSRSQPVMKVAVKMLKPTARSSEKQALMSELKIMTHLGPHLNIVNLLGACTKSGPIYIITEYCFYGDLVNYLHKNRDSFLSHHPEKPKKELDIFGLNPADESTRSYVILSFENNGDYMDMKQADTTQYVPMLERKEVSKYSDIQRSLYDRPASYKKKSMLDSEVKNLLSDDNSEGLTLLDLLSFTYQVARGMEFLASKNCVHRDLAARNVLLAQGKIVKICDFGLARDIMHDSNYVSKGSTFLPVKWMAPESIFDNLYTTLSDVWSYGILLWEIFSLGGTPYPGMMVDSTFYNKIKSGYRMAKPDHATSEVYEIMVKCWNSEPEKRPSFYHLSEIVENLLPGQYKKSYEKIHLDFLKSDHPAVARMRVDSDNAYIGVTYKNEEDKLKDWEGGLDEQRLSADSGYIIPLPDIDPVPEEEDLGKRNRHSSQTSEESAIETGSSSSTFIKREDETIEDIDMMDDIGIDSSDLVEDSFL
Chain of Fibroblast growth factor receptor 1 (P11362 whole entry): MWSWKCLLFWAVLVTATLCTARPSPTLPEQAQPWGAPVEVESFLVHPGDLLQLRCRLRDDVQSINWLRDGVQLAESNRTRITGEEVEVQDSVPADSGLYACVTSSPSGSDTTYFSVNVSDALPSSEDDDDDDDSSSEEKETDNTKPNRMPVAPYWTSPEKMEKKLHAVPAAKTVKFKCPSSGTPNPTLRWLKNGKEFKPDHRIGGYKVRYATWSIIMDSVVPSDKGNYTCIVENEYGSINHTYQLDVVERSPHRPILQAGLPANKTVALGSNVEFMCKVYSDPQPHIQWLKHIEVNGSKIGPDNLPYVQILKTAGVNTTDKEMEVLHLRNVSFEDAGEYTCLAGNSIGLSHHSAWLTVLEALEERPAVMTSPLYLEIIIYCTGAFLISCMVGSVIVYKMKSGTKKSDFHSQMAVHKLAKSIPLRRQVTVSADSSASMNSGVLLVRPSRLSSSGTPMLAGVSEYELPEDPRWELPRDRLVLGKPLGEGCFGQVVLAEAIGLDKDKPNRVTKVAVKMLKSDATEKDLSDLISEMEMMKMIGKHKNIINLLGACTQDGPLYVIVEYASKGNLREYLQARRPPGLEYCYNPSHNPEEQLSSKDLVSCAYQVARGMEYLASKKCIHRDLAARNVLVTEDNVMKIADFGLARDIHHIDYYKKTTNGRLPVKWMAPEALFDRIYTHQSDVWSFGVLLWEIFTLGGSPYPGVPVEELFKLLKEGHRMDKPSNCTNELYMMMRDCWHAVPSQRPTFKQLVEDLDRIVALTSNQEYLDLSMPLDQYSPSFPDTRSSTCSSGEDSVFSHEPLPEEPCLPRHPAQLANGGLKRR
Chain of Vascular endothelial growth factor receptor 1 (P17948 whole entry): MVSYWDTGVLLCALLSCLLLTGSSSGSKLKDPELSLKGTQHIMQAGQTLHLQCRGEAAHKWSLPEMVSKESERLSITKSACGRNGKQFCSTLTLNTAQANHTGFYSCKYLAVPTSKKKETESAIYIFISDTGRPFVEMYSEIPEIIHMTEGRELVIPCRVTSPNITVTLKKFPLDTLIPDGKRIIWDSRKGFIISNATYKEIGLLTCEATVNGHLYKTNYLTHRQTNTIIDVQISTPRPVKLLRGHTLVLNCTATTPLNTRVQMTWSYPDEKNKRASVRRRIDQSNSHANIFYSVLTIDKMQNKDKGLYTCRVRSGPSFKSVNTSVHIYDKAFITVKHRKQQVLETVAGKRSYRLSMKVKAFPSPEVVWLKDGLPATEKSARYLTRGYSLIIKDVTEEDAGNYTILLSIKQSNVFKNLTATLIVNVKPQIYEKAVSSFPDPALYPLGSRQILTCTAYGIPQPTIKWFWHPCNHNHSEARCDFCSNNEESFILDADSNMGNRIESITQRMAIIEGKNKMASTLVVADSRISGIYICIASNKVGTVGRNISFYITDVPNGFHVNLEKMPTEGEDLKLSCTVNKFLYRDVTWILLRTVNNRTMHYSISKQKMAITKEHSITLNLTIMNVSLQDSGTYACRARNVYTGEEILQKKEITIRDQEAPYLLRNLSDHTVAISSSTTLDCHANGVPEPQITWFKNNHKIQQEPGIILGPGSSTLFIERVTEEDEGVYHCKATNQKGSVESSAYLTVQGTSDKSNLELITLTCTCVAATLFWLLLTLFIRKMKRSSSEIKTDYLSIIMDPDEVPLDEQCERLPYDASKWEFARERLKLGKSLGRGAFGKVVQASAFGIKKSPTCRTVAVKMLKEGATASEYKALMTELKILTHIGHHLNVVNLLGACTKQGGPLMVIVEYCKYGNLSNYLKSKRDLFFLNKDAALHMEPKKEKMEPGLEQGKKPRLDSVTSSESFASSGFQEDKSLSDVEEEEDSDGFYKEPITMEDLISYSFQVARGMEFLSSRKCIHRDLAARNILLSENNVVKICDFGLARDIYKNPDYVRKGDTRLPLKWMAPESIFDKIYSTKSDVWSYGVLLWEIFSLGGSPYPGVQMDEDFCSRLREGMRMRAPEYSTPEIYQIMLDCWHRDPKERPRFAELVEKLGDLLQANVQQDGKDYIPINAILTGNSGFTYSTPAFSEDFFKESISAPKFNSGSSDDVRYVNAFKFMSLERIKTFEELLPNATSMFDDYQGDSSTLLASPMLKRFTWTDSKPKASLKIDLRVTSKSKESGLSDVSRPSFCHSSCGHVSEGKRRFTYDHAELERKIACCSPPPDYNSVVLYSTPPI
Chain of Receptor tyrosine-protein kinase erbB-2 (P04626 whole entry): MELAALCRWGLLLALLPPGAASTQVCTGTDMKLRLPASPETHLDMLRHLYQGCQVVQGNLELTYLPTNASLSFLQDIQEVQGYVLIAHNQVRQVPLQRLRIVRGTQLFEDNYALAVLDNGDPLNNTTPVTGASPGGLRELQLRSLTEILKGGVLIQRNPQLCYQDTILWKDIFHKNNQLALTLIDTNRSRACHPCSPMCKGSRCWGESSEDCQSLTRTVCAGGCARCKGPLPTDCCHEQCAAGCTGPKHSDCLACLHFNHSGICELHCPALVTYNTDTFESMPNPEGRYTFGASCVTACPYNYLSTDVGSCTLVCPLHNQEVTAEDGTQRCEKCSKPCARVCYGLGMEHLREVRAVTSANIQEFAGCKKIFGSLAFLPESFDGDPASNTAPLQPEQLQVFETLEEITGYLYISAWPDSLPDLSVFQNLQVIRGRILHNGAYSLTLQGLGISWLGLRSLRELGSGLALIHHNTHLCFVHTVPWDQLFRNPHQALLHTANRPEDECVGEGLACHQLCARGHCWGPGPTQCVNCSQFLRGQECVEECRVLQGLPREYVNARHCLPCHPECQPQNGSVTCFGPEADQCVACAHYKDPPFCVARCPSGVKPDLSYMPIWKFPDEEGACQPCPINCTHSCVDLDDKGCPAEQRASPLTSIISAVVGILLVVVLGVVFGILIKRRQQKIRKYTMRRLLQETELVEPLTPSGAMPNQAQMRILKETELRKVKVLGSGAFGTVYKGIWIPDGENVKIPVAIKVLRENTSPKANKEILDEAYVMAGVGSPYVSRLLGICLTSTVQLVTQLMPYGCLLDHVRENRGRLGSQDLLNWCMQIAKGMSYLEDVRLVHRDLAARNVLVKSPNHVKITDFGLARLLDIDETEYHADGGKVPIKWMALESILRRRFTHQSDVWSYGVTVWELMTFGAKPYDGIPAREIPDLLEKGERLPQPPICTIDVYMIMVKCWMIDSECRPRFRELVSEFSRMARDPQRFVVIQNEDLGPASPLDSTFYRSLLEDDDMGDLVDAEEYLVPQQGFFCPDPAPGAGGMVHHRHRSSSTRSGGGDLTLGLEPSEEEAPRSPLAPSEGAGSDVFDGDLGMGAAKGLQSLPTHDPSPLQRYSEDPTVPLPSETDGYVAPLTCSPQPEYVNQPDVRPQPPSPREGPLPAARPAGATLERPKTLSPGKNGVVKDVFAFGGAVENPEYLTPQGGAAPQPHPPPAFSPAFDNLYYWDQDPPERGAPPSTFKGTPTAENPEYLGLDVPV

Question: Which AUC(0-t) at 24 h [1] does the source give for `Cc1n[nH]c2ccc(-c3cc(N[C@@H](CO)c4ccccc4)cnc3Cl)cc12` here?
Answer: 553 ng·h/mL

Question: What about the Activity (MV4-11 [2]) of the same molecule?
Answer: 2.86

Question: What about the Activity (MV4-11 [3]) of the same molecule?
Answer: 1.76%

Question: What about the T/C (MV4-11 [4]) of the same molecule?
Answer: 27.8%

Question: And the IC50 [5]?
Answer: > 1000 nM

Question: And the IC50 [6]?
Answer: 164 nM

Question: And the AUC(0-inf) [7]?
Answer: 558 ng·h/mL

Question: What about the IC50 (Z-138) of the same molecule?
Answer: 46 nM

Question: What about the AUC(0-inf) [8] of the same molecule?
Answer: 1880 ng·h/mL

Question: What about the IC50 [9] of the same molecule?
Answer: > 1000 nM

Question: And the MRT [10]?
Answer: 0.73 h

Question: What about the clearance [11] of the same molecule?
Answer: 60 mL/min/kg

Question: And the IC50 [12]?
Answer: > 1000 nM

Question: What about the IC50 [13] of the same molecule?
Answer: > 1000 nM

Question: And the half-life [14]?
Answer: 1.81 h

Question: And the IC50 (OCI-Ly10)?
Answer: 3.2 nM

Question: And the Activity [15]?
Answer: < 10%

Question: And the inhibition [16]?
Answer: inactive

Question: What about the Activity (MV4-11 [17]) of the same molecule?
Answer: 0.84%

Question: What about the IC50 (TMD8) of the same molecule?
Answer: 46 nM

Question: What about the bioavailability [18] of the same molecule?
Answer: 33.7%

Question: And the IC50 (Insulin receptor)?
Answer: > 1000 nM

Question: What about the Activity (MV4-11 [19]) of the same molecule?
Answer: 3.59%

Question: What about the IC50 (JeKo-1) of the same molecule?
Answer: 46 nM

Question: And the IC50 [20]?
Answer: > 1000 nM

Question: What about the Tmax [21] of the same molecule?
Answer: 4.98 min

Question: And the inhibition [22]?
Answer: inactive

Question: What about the IC50 [23] of the same molecule?
Answer: > 1000 nM

Question: What about the IC50 (Raji) of the same molecule?
Answer: 37 nM

Question: And the IC50 [24]?
Answer: > 1000 nM

Question: And the IC50 [25]?
Answer: > 1000 nM

Question: What about the IC50 [26] of the same molecule?
Answer: > 1000 nM

Question: And the IC50 [27]?
Answer: > 1000 nM

Question: What about the half-life [28] of the same molecule?
Answer: 8.02 h

Question: What about the IC50 [29] of the same molecule?
Answer: > 1000 nM

Question: And the Activity (MV4-11 [30])?
Answer: 16.89%

Question: What about the IC50 (CDK9/cyclin T1) of the same molecule?
Answer: 5.41 nM

Question: And the Activity (MV4-11 [31])?
Answer: 76.29%

Question: And the IC50 [32]?
Answer: > 1000 nM

Question: And the Activity (MV4-11 [33])?
Answer: 94.45%

Question: What about the IC50 [34] of the same molecule?
Answer: 8.4 nM

Question: What about the IC50 [35] of the same molecule?
Answer: > 1000 nM

Question: And the Activity (MV4-11 [36])?
Answer: 371 mm3
